Results published in patent publication US20040266008A1, “Polyene polyketides, processes for their production and their use as pharmaceuticals” (Ecopia BioSciences, Inc., priority 2003, published 2004).

Experiments:
C. albicans (Calb) = experiment: MIC broth microdilution, C. albicans (Calb)
Candida sp. (Cflu) = experiment: MIC broth microdilution, Candida sp. (Cflu)
C. glabrata (Cgla) = experiment: MIC broth microdilution, C. glabrata (Cgla)
C. albicans (Ctro) = experiment: MIC broth microdilution, C. albicans (Ctro)
S. cerevisiae (Scer) = experiment: MIC broth microdilution, S. cerevisiae (Scer)

With C\C(=C/C=C/C=C/CC/C=C/C(C)C(O)C(C)C(O)/C=C/C=C/C=C/C=C/C=C/C=C/CC(OS(=O)(=O)O)C(C)C(=O)CC(O)CC(O)/C=C/CC(O)CC(O)CC(O)/C=C/CC(O)CC(O)/C=C/CC(O)CC(O)CCCNC(=N)N)C(=O)O (centres unmarked) [Compound 1] the “Minimal Inhibitory Concentrations” value (C. albicans (Calb); 24 hrs) was 4 µg/mL, the “Minimal Inhibitory Concentrations” value (Candida sp. (Cflu); 24 hrs) was 8 µg/mL and the “Minimal Inhibitory Concentrations” value (C. glabrata (Cgla); 24 hrs) was 4 µg/mL. For the same molecule, the “Minimal Inhibitory Concentrations” value (C. albicans (Ctro); 24 hrs) was 4 µg/mL and the “Minimal Inhibitory Concentrations” value (S. cerevisiae (Scer); 24 hrs) was 4 µg/mL.
With C\C(=C/C=C/C=C/CC/C=C/C(C)C(O)C(C)C(O)/C=C/C=C/C=C/C=C/C=C/C=C/CC(O)C(C)C(=O)CC(O)CC(O)/C=C/CC(O)CC(O)CC(O)/C=C/CC(O)CC(O)/C=C/CC(O)CC(O)CCCNC(=N)N)C(=O)O (centres unmarked) [Compound 2] the “Minimal Inhibitory Concentrations” value (C. albicans (Calb); 48 hrs) was 4 µg/mL, the “Minimal Inhibitory Concentrations” value (Candida sp. (Cflu); 48 hrs) was 8 µg/mL and the “Minimal Inhibitory Concentrations” value (C. glabrata (Cgla); 48 hrs) was 4 µg/mL. For the same molecule, the “Minimal Inhibitory Concentrations” value (C. albicans (Ctro); 48 hrs) was 4 µg/mL and the “Minimal Inhibitory Concentrations” value (S. cerevisiae (Scer); 48 hrs) was 4 µg/mL.
C[C@@H]1[C@H](O)[C@@H](C)/C=C/C=C/C=C/C=C/C=C/C=C/C=C/[C@H](O[C@@H]2O[C@H](C)[C@@H](O)[C@H](N)[C@@H]2O)C[C@@H]2O[C@](O)(C[C@@H](O)C[C@@H](O)[C@H](O)CC[C@@H](O)C[C@@H](O)CC(=O)O[C@H]1C)C[C@H](O)[C@H]2C(=O)O [Amphotericin B] was tested, and the “Minimal Inhibitory Concentrations” value (C. albicans (Calb); 24 hrs) was 0.5 to 1 µg/mL, the “Minimal Inhibitory Concentrations” value (C. albicans (Calb); 48 hrs) was 1 µg/mL and the “Minimal Inhibitory Concentrations” value (Candida sp. (Cflu); 24 hrs) was 0.5 to 1 µg/mL. The “Minimal Inhibitory Concentrations” value (Candida sp. (Cflu); 48 hrs) was 1 µg/mL, the “Minimal Inhibitory Concentrations” value (C. glabrata (Cgla); 24 hrs) was 0.5 to 1 µg/mL and the “Minimal Inhibitory Concentrations” value (C. glabrata (Cgla); 48 hrs) was 1 µg/mL. For the same molecule, the “Minimal Inhibitory Concentrations” value (C. albicans (Ctro); 24 hrs) was 1 µg/mL, the “Minimal Inhibitory Concentrations” value (C. albicans (Ctro); 48 hrs) was 2 µg/mL and the “Minimal Inhibitory Concentrations” value (S. cerevisiae (Scer); 24 hrs) was 0.5 µg/mL. For the same molecule, the “Minimal Inhibitory Concentrations” value (S. cerevisiae (Scer); 48 hrs) was 1 µg/mL.
